Measured values from publication PMC12455437, “Bispecific DNA‐Peptide Probes for Targeting Receptor Pairs on Live Cells” (Angewandte Chemie (International Ed. in English), 2025).
Where a SMILES comes first, the peptide text is derived from it. [ ]: non-standard residue; d: D form. The star is where a group is joined. Dolaproine = CO[C@@H]([C@@H]1CCCN1)[C@@H](C)C(=O)O; Dil = CC[C@H](C)[C@H](NC)[C@@H](CC(=O)O)OC; X1 = C[C@@H](N*)[C@@H](O)c1ccccc1; NMeV = CN[C@H](C(=O)O)C(C)C

Test system: HEK‐293 cells (VEGFR2−, αvβ3−)
Experiment: AlamarBlue cell viability, HEK-293
Format: cell-based
Conditions: 200 nM MMAE in free form, 10 min in PBS, 37 °C, 10% Alamar blue 6 h; HUVEC, HEK-293, HCT-116, A498 compared (Figure S44)
Excerpt: Figure 6 Cytotoxicity of cathepsin B‐cleavable vcMMAE‐DNA‐peptide complexes LC40 and components. a) Viability of HUVECs after treatment with unlabeled DNA complex 2), vcMMAE‐template DNA 3), single‐stranded monovalent DNA‐peptide conjugates 4 and 5), heterobivalent LC40 lacking cytotoxic payload 6), both i) single‐stranded monovalent DNA‐peptide conjugates followed by ii) addition of vcMMAE‐template 7), with i) unlabeled DNA complex followed by addition of ii) both single‐stranded monovalent DNA‐peptide conjugates and subsequently iii) vcMMAE‐template 8 and 9), vcMMAE‐LC40 at varied concentrations 10–15) or with unlabeled DNA complex prior to addition of vcMMAE‐LC40 16 and 17). […] Flow cytometric analysis of HUVECs mixed with e) eGFP‐expressing HEK‐293 cells or f) anti‐EpCAM antibody‐stained HCT‐116 cells assessed by dead cell staining. […]
The collected HUVEC cells were washed twice with OptiMEM and added to 2.4 mL OptiMEM in T25 flasks.The siRNA-lipofectamine complex (600 µL) was added to 2.4 mL HUVEC cells, and the mixture was incubated at 37°C, 5% CO 2 for 4 h. […] The transfection efficiency was calculated by flow cytometry and comparing the signal of anti-integrin antibody (A488) from HUVEC cells transfected with siRNA + lipofectamine with that from the cells with mock transfection (Fig. S39). […]

CC[C@H](C)[C@@H]([C@@H](CC(=O)N1CCC[C@H]1[C@H](OC)[C@@H](C)C(=O)N[C@H](C)[C@@H](O)c1ccccc1)OC)N(C)C(=O)[C@@H](NC(=O)[C@@H](NC)C(C)C)C(C)C [MMAE, monomethyl auristatin E] (H-[NMeV]V[Dil][Dolaproine]-X1)
cytotoxic effect of MMAE in free form, comparison of cell lines: most vulnerable
